Assay results: patent US8129538B1, “Renin inhibitors” (Takeda Pharmaceutical Company Limited, priority 2007, dated 2012)

Each compound was assayed against T1, Recombinant human renin (Homo sapiens, UniProt P00797) (assay: In vitro enzymatic activity assay of renin inhibitors (fluorogenic peptide substrate)). Details: recombinant human renin 3 nM, substrate 1 μM, 37° C., pH 7.4, fluorescence; read-out: IC50 of Exemplified Compounds Against Renin.
T1 construct: isolate the active form (residues 67-406); made in house
T1 sequence (P00797 67-406): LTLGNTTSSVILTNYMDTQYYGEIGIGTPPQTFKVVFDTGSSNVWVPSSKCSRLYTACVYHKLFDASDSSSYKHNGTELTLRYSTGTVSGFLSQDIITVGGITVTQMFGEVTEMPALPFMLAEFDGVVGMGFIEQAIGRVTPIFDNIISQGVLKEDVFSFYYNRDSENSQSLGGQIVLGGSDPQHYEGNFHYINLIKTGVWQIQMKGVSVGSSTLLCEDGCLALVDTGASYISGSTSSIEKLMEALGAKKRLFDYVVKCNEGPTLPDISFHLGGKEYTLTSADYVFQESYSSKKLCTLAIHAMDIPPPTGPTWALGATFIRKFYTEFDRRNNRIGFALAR
Type: biochemical
Description: Test compounds in varying concentrations may be reacted with recombinant human renin in the presence of substrate, e.g., QXL520-γ-Abu-Ile-His-Pro-Phe-His-Leu-Val-Ile-His-Thr-Lys (HiLyteFluo488)-Arg-OH (Anaspec, San Jose, Calif.). The reaction can be followed kinetically using fluorescence (excitation λ=485 nm; emission λ=538 nm) Inhibition constants (IC50) may be calculated by non-linear curve fitting of the compound concentrations and fluorescence intensities to the standard IC50 equation.
Solutions of test compounds in varying concentrations (≦2 mM final concentration) are prepared in dimethyl sulfoxide (DMSO) and then diluted into assay buffer comprising 50 mM Hepes, 1 mM EDTA, 1 mM DTT, 0.1 mg/mL BSA, 0.01% Brij35, pH 7.4. Alternatively, the assay can be performed with a high BSA concentration, wherein the buffer contains an additional 2% BSA.
Recombinant human renin (3 nM final concentration) is added to the dilutions and pre-incubated with the compounds for 10 minutes at 37° C. As described in Examples A-C above, human renin can be obtained by expressing preprorenin (residue 1-406) in mammalian cells, treating the prorenin (residues 24-406) contained in the culture supernatant with trypsin, and isolate the active form (residues 67-406). After pre-incubation, the reaction is initiated with 1 μM of substrate QXL520-γ-Abu-Ile-His-Pro-Phe-His-Leu-Val-Ile-His-Thr-Lys (HiLyteFluo488)-Arg-OH (Anaspec, San Jose, Calif.). The final DMSO in the assay is 5%. The total volume of the reaction mixture is 20 μL, which can be placed on Greiner 384-well small volume plates.
Renin activity may be determined via fluorescence (excitation λ=485 nm; emission λ=538 nm), e.g., on a Molecular Devices SPECTROmax GEMINI XPS. The fluorescence
intensity is determined upon the addition of substrate and determined again after incubation at 37° C. for one hour. The fluorescence intensity of a blank (no inhibition) using vehicle alone is also determined. Renin activity is linearly proportional to the change in fluorescence observed (final-initial).
The percent inhibition of renin at a given compound concentration is defined as: 100%×[1−(Fcompound/Fblank)] where Fcompound is the observed fluorescence at a given concentration of test compound and Fblank is the observed fluorescence in the presence of vehicle alone.
The pIC50 value (negative log of the molar concentration of the compound that produces 50% inhibition) of a test compound is calculated by non-linear least squares curve fitting of the equation: Percent Inhibition=100%/(1+(10−pIC50/10 log [I])) to percent inhibition versus compound concentration. The 50% inhibitory concentration (IC50) of a test compound is calculated by raising 10 to the negative pIC50 (10-pIC50).

SMILES | IC50 [µM]
O=C(C1=C(c2cccc(-c3ccccc3)c2)CCNC1CO)N(Cc1cccc(Cl)c1Cl)C1CC1 (stereo not shown) [Compound 1, 4-(biphenyl-3-yl)-N-cyclopropyl-N-(2,3-dichlorobenzyl)-2-(hydroxymethyl)-1,2,5,6-tetrahydropyridine-3-carboxamide] | > 1
COCOC[C@H]1NCCC(c2ccc(OCCOc3c(Cl)cccc3Cl)cc2)=C1C(=O)N(Cc1cccc(Cl)c1Cl)C1CC1 [Compound 5, (S)-N-cyclopropyl-N-(2,3-dichlorobenzyl)-4-(4-(2-(2,6-dichlorophenoxy)ethoxy)phenyl)-2-((methoxymethoxy)methyl)-1,2,5,6-tetrahydropyridine-3-carboxamide] | < 0.1
O=C(C1=C(c2ccc(OCCOc3c(Cl)cccc3Cl)cc2)CCN[C@@H]1CO)N(Cc1cccc(Cl)c1Cl)C1CC1 [Compound 6, (S)-N-cyclopropyl-N-(2,3-dichlorobenzyl)-4-(4-(2-(2,6-dichlorophenoxy)ethoxy)phenyl)-2-(hydroxymethyl)-1,2,5,6-tetrahydropyridine-3-carboxamide] | < 0.1
Cc1cc(Cl)c(OCCOc2ccc(C3=C(C(=O)N(Cc4cccc(Cl)c4Cl)C4CC4)[C@@H](CO)NCC3)cc2)c(Cl)c1 [Compound 9, (S)-N-cyclopropyl-4-(4-(2-(2,6-dichloro-4-methylphenoxy)ethoxy)phenyl)-N-(2,3-dichlorobenzyl)-2-(hydroxymethyl)-1,2,5,6-tetrahydropyridine-3-carboxamide] | < 0.1
COCOC[C@H]1NCCC(c2ccc(OCCOc3c(Cl)cc(C)cc3Cl)cc2)=C1C(=O)N(Cc1cccc(Cl)c1Cl)C1CC1 [Compound 10, (S)-N-cyclopropyl-4-(4-(2-(2,6-dichloro-4-methylphenoxy)ethoxy)phenyl)-N-(2,3-dichlorobenzyl)-2-((methoxymethoxy)methyl)-1,2,5,6-tetrahydropyridine-3-carboxamide] | < 0.1
O=C(C1=C(c2ccc(O)cc2)CCN[C@@H]1CO)N(Cc1cccc(Cl)c1Cl)C1CC1 [Compound 12, (S)-N-cyclopropyl-N-(2,3-dichlorobenzyl)-2-(hydroxymethyl)-4-(4-hydroxyphenyl)-1,2,5,6-tetrahydropyridine-3-carboxamide] | > 1
COc1ccc(C2=C(C(=O)N(Cc3cccc(Cl)c3Cl)C3CC3)[C@@H](CO)NCC2)cc1 [Compound 13, (S)-N-cyclopropyl-N-(2,3-dichlorobenzyl)-2-(hydroxymethyl)-4-(4-methoxyphenyl)-1,2,5,6-tetrahydropyridine-3-carboxamide] | > 1
NC[C@H]1NCCC(c2ccc(OCCOc3c(Cl)cccc3Cl)cc2)=C1C(=O)N(Cc1cccc(Cl)c1Cl)C1CC1 [Compound 14, (S)-2-(aminomethyl)-N-cyclopropyl-N-(2,3-dichlorobenzyl)-4-(4-(2-(2,6-dichlorophenoxy)ethoxy)phenyl)-1,2,5,6-tetrahydropyridine-3-carboxamide] | 0.1 to 1

Next, values leading:

IC50 [µM] | SMILES
> 1 | O=C(C1=C(c2ccc(OCCOc3ccccc3Cl)cc2)CCNC1CO)N(Cc1cccc(Cl)c1Cl)C1CC1 (stereo not shown) [Compound 2, 4-(4-(2-(2-chlorophenoxy)ethoxy)phenyl)-N-cyclopropyl-N-(2,3-dichlorobenzyl)-2-(hydroxymethyl)-1,2,5,6-tetrahydropyridine-3-carboxamide]
0.1 to 1 | COCOC[C@H]1NCCC(c2cccc(-c3ccccc3)c2)=C1C(=O)N(Cc1cccc(Cl)c1Cl)C1CC1 [Compound 4, (S)-4-(biphenyl-3-yl)-N-cyclopropyl-N-(2,3-dichlorobenzyl)-2-((methoxymethoxy)methyl)-1,2,5,6-tetrahydropyridine-3-carboxamide]
< 0.1 | Cc1cccc(C)c1OCCOc1ccc(C2=C(C(=O)N(Cc3cccc(Cl)c3Cl)C3CC3)[C@@H](CO)NCC2)cc1 [Compound 7, (S)-N-cyclopropyl-N-(2,3-dichlorobenzyl)-4-(4-(2-(2,6-dimethylphenoxy)ethoxy)phenyl)-2-(hydroxymethyl)-1,2,5,6-tetrahydropyridine-3-carboxamide]
< 0.1 | COCOC[C@H]1NCCC(c2ccc(OCCOc3c(C)cccc3C)cc2)=C1C(=O)N(Cc1cccc(Cl)c1Cl)C1CC1 [Compound 8, (S)-N-cyclopropyl-N-(2,3-dichlorobenzyl)-4-(4-(2-(2,6-dimethylphenoxy)ethoxy)phenyl)-2-((methoxymethoxy)methyl)-1,2,5,6-tetrahydropyridine-3-carboxamide]
< 0.1 | O=C(C1=C(c2ccc(OCCOc3c(F)ccc(F)c3Cl)cc2)CCN[C@@H]1CO)N(Cc1cccc(Cl)c1Cl)C1CC1 [Compound 11, (S)-4-(4-(2-(2-chloro-3,6-difluorophenoxy)ethoxy)phenyl)-N-cyclopropyl-N-(2,3-dichlorobenzyl)-2-(hydroxymethyl)-1,2,5,6-tetrahydropyridine-3-carboxamide]
